Experimental data published in US20260248833A1, “PYRIMIDINE NUCLEOSIDE TREATMENTS” (The Children`s Medical Center Corporation, priority 2022, published 2026).
Entries after “also recorded” stand apart in the source; their conditions may differ.

How the values were obtained:
[1] = system: super-telomerase cells (TERC-null 293T cells transfected with TERT and TERC); assay: TRF Southern blot telomere synthesis in super-telomerase cells; format: cell-based, human
Description: (§1) Terminal Restriction Fragment Length Analysis: genomic DNA was isolated from cells using the Invitrogen Purelink Genomic DNA mini kit (Invitrogen). 1-3 μg of gDNA was digested with RsaI and HinfI for 2-3 hrs at 37° C. and loaded onto a 0.6% agarose gel followed by Southern blotting using the Telotaggg Telomere Length Assay Kit (Roche). Quantification was performed using the WALTER webtool.
dT supplementation increases levels of dTTP and can reduce dCTP levels, leading to replication stress at high doses. Because replication stress signaling has been implicated in telomerase biology we asked whether replication stress induction explained the telomere length increases seen with dT treatment. We first tested whether telomere elongation is a universal response to replication stress-inducing compounds. […] However, cytotoxicity limited our ability to apply higher doses of replication stress-inducing compounds for time periods long enough to study telomere length changes. […] Using this system, we next asked how high-dose treatment with replication stress-inducing agents such as aphidicolin, hydroxyurea, and the TYMS inhibitor 5FU influence telomere synthesis compared to dT.

[2] = system: telomerase; assay: TRAP assay on lysates from 293T cells treated with dT; format: cell-based, human; conditions: 293T cells treated with or without 100 μM dT, 3 days
Description: TRAP assay: cell extracts for TRAP assays were made using TRAPeze™1×CHAPS Lysis Buffer (Roche) supplemented with RNASEin (Promega). Standard TRAP reactions (in FIG. 25a) were performed as described, with cell input normalized across samples using the Bio-Rad DC assay. TRAP assays were modified to enable unique dNTP concentrations in telomerase reactions from PCR reactions (FIG. 25) as follows: reactions were assembled with 1×TRAP buffer (20 mM Tris-HCl, pH 8.3; 1.5 mM MgCl2; 63 mM KCl; 0.05% Tween 20; 1 mM EGTA), TS, ACX, TNST, and NT primers as described (see Primers/Oligos below), dNTPs were added at physiologic concentrations (dATP 24 μM, dGTP 5.2 μM, dCTP 29 μM, dTTP 37 μM) unless otherwise mentioned in the figure legend, followed by telomerase extracts. TRAP assays were modified to detect GGAAAG repeats using the following primers: TS GGAAAG, TNST GGAAAG, ACX GGAAAG, and NT (see Primers/Oligos below). After addition of telomerase extracts, reactions were incubated for 30 minutes at 30° C. followed by heat inactivation at 95° C. for 5 minutes. […] Images were quantified for a given lane using ImageJ by measuring the signal of the telomerase repeat sized products divided by the signal of the internal control band for the lane, normalized to the same ratio for the untreated sample(s) in a given experiment. […]

[3] = system: TERC-null 293T cells; assay: TRF Southern blot telomere length, telomerase-negative TERC-null 293T cells; format: cell-based, human; conditions: 100 μM thymidine for 7 days
Description: (§2) Cell culture: K562 cells (ATCC) were grown in RPMI1 1640 (Gibco) media supplemented with 10% fetal bovine serum. 293T cells (ATCC) were grown in DMEM (Gibco) supplemented with 10% fetal bovine serum, and were subcultured using 0.05% trypsin (Gibco). iPSCs were derived, characterized and cultured as previously described. iPSCs were grown in Essential 8 Media (Life Technologies) supplemented with the ROCK inhibitor Y271632 (Stem Cell Technologies) at 10 μM on plates coated with hES qualitied Matrigel matrix (Corning) and were subcultured using Accutase (Stem Cell Technologies).
as §1

[4] = cited from earlier work
[5] = system: 293T cells; assay: Cell cycle analysis by DAPI staining and flow cytometry, 293T cells; format: cell-based, human
Description: (§3) Cell cycle analysis by DNA content staining and flow cytometry: Cells were prepared either for flow-FISH staining as described (for experiments in FIG. 5) or by ethanol fixation (for data in FIG. 6, 27), followed by rehydration and counterstaining using DAPI (BD Biosciences) and analysis on an LSR-II or Fortessa analyzer (BD Biosciences) using BD FACSDiva 8.0.2. Cells were gated on FSC/SSC as described in FIG. 6d using FlowJo V10.7.1.

[6] = system: K562 cells; assay: Cell cycle analysis by DAPI staining and flow cytometry, K562 cells; format: cell-based, human
Description: as §3

[7] = system: iPSCs derived from TBD patients; assay: TRF Southern blot telomere length, TBD patient-derived iPSCs; format: cell-based, human; conditions: for telomere length increase / telomere elongation: 50 μM dT for three weeks; for telomere elongation: panel of TBD patient iPSCs (TERC, DKC1, PARN)
Description: as §2, §1

[8] = system: pCHK1-S345 and pRPA32-S33; assay: Immunoblot of replication stress signaling in iPSCs; format: cell-based, human; conditions: iPSCs treated with dT
[9] = system: iPSCs from a healthy donor; assay: TRF Southern blot telomere length, wildtype iPSCs; format: cell-based, human
Description: as §2, §1

[10] = system: 293T cells; assay: Polar metabolite profiling by LC-MS of dT treated 293T cells; format: cell-based, human
Description: Liquid Chromatography-Mass Spectrometry: extraction of and quantification of polar metabolites was performed as described using HPLC grade methanol (Fisher Scientific). If a given species was detected in multiple ion modes, the mode with the highest average signal in the untreated cells was used for analysis.

Cc1cn([C@H]2C[C@H](O)[C@@H](CO)O2)c(=O)[nH]c1=O [dT, 1-[(2R,4S,5R)-4-Hydroxy-5-(hydroxymethyl)oxolan-2-yl]-5-methylpyrimidine-2,4 (1H,3H)-dione]
dose at which increased telomere repeat synthesis could be observed ([1]; 30 hours): 40 µM | rescue of telomere synthesis following 5FU treatment ([1]; dT supplementation with maximal doses of 5FU): restored telomere elongation despite maximal doses of 5FU; also recorded: fully rescued telomere synthesis | maximal rate of telomere elongation ([1]; high-dose dT treatment, 30 hours, baseline 103 bp/hour): 625 bp/hour | telomere repeat synthesis / telomere elongation by telomerase ([1]; treatment for 30 hours): robustly increased telomere repeat synthesis in a dose-responsive and telomerase-dependent manner | telomerase activity in lysates (abundance of active telomerase enzymes) [2]: no difference in telomerase activity | telomere length [3]: failed to drive detectable telomere elongation | aqueous solubility [4]: about 50 mg/ml | dT doses with no detectable changes in cell cycle distribution [5]: below 100 μM | dT doses with no detectable changes in cell cycle distribution [6]: below 12.5 μM | telomere length increase ([7]; PARN deficient iPSCs): 570 bp | telomere length ([7]; TBD patient-derived iPSCs with two different mutations, 100 μM dT for 22 days (FIG. 13A)): increased telomere length | telomere length increase ([7]; TERC deficient iPSCs): 640 bp | telomere elongation [7]: produced telomere elongation in all cases | telomere elongation ([7]; listed as thymidine): hundreds of basepairs | replication stress signaling [8]: no indication of replication stress signaling | telomere elongation ([9]; 100 μM dT, three weeks): ~ 2000 bp | telomere elongation ([9]; dT for three weeks): significantly elongated telomeres | dTDP levels ([10]; 100 μM dT): fourfold | levels of dTTP compared to vehicle ([10]; 100 μM dT): four-fold | levels of dTMP, dTDP and dTTP ([10]; 100 μM dT for 24 hours): increases levels of dTMP, dTDP and dTTP
